Assay results published in US20040014217A1, “Methods of transfection” (priority 2000, published 2004).

How the values were obtained:
[1] = tested on: Human airway epithelial (HAE) cells; test: GFP transfection of HAE cells with or without EGTA (FACS), Example 13; assay type: cell-based; details: EGTA 1 mM
Description: Human airway epithelial (HAE) cells, type HEAO— were seeded at 80% into 24 well plates. The cells were grown in Modified Eagle Medium (MEM) obtained from Life Technologies (Paisley, Scotland) supplemented with 10% foetal calf serum and 2 mM L-glutamine to form cultures of confluent cells. Subconfluent cultures of the same cells were also prepared.
The reporter genes used were a green fluorescent protein (GFP) reporter gene and a luciferase reporter gene. The GFP reporter gene was used in the form of plasmid pEGFP-N1, obtained from Clontech. The luciferase reporter gene was used in the form of construct pCILuc consisting of the firefly luciferase gene (Luc) inserted into the expresssion vector pCI (Promega, Southampton, England)
For these in vitro experiments peptide 12 [K]16XSXGACRRETAWACG (X: ε amino hexanoic acid), SEQ.ID.NO.: 26, was used. […]
Transfection levels using the luciferase reporter gene was measured as described in the Material and methods section. In the case of the GFP reporter gene, after harvesting the cells were analysed by fluorescence activated cell sorting (FACS) for quantification of the number of fluorescent cells.

[2] = tested on: Human airway epithelial (HAE) cells; test: Luciferase (pCILuc) transfection of HAE cells, Example 13; assay type: cell-based
Description: Transfection vector complexes were prepared as described in the Material and Methods section, see also Example 15. The complexes were prepared using 4 μg of the peptide, 0.75 μg of lipofectin and 1 μg of the reporter gene. All components and the vector complex were made up in OptiMEM (Life Technologies, Inc.). EGTA (Sigma) at a concentration of 100 mM in water was added to the transfection vector complex preparation at one hundredth of the volume of the vector complex, giving a final EGTA concentration of 1 mM.
The EGTA/vector complex mixture was added to the cultures, which were then harvested two days later. As controls, cultures were treated with OptiMEM medium alone and with the transfection vector complex without EGTA.
We obtained essentially the same results using the luciferase reporter gene instead of GFP. Transfections ere carried out using the transfection vector prepared as described above with the construct pCILuc, with and without EGTA, as described above. Luciferase assays were performed on cell-free extracts of harvested cells using a kit obtained from Promega using an Anthos Lucy 1 Luminometer. As with the GFP experiments, luciferase levels were enhanced approximately four-fold in confluent cells treated with EGTA compared with transfections performed without EGTA. […]

confluent 1HAEo-cells = test: Binding of FITC-labelled LID complexes to confluent cells; assay type: cell-based, human; details: 2 mM EGTA, 4° C.
Description: The effects of EGTA on cell binding were determined by transfection with LID complexes prepared with fluorescein (FITC) labelled peptide. Peptide-12 was labelled with FITC from a labelling kit (Calbiochem, San Diego, USA) and purified by dialyzing in PBS overnight, according to the manufacturer's instruction. The ability of FITC-conjugated peptide-12 to form complexes with plasmid DNA was determined by retardation test, in which the electrophoresis migration of DNA is retarded by forming complexes with the cationic peptide as described previously (Hart et al., 1995). […] The cells were then transfected with apically added LID-FITC for 60 minutes at 4° C., at which the complexes would only bind to cell surface and no internalisation would occur, see(Chu et al (1999), Cornelissen et al (1997), Im et al (1986). The surface binding of the LID complexes was further differentiated from the internalised LID by incubating the cells with 1 μg/ml crystal violet (Sigma, Poole, UK) for 10 minutes at 4° C., to quench the fluorescence of surface-bound LID complexes, see (Ma et al (1997), Van Amers & Van Strijp (1994). The mean numbers of fluorescent particles were then counted in 10 random microscope fields and comparison was made between the data obtained from EGTA-treated or untreated cells.

[3] = tested on: confluent epithelial cells; test: Transepithelial resistance after EGTA exposure; details: 2 mM EGTA; data not shown

O=C(O)CN(CCOCCOCCN(CC(=O)O)CC(=O)O)CC(=O)O [EGTA, ethylene glycol-bis(β-aminoethyl ether)-N,N,N′,N′-tetraacetic acid]
effect on efficiency of transfection of sub-confluent cells [1]: no effect
increase of transfection levels of confluent cells [1]: four-fold
enhancement of luciferase levels in confluent cells versus transfection without EGTA ([2]; pCILuc): approximately four-fold
transfection after pre-incubation of the cells with EGTA ([2]; pre-incubation before vector): no better than the results without EGTA
binding of LID particles to confluent cells (confluent 1HAEo-cells): greatly increased
recovery of transepithelial resistance after removal [3]: 16 to 18 h
time after exposure at which transepithelial resistance dropped [3]: about 10 minutes
